From patent US8580921B2, “Protein nanorings” (University of Minnesota, priority 2005, dated 2013)

What was measured:
[1] = system: Daudi cells; conditions: 2 hr incubation; cited from earlier work
[2] = humans; cited from earlier work
[3] = given orally to mice; cited from earlier work
[4] = system: 39 human tumor cell lines; conditions: cited from earlier work
[5] = SEC of isolated DHFR^2 oligomers after storage or dilution; format: physicochemical; conditions: oligomers with MTX^2-C9 isolated by SEC (dimers, tetramers, octamers), stored 2 weeks at 4° C.
Experimental: SEC was employed to initially assess the degree of DHFR^2 induced oligomerization by MTX^2. The purified DHFR^2-13 (10 uM) and MTX^2-C9 were mixed at a range of stoichiometries, allowed to equilibrate for one hour, and assayed by size exclusion chromatography on a Superdex G75 Column (Amersham).
Assemblies of this size, however, approach or exceed the exclusion limit of the G75 matrix, preventing definitive assignment of the molecular weight and oligomer number. The dimeric fraction increased at the expense of the larger oligomers with time, becoming the dominant species. […] For DHFR^2-3, tetramers were the dominant species, further increasing with time. […] In addition, in contrast to the expected result from linear oligomers, no observable change in composition was observed when oligomer samples were dilution to a concentration of 5 nM.

Molecule | IC50 [1] [nM] | oligomer composition on re-injection after storage [5] | further results
COc1cccc2c1C(=O)c1c(O)c3c(c(O)c1C2=O)C[C@@](O)(C(=O)CO)C[C@@H]3O[C@H]1C[C@H](N)[C@H](O)[C@H](C)O1 [doxorubicin] | 225 ± 35 |  | 
COc1cc(Cc2cnc(N)nc2N)cc(OC)c1OC [trimethoprim] |  |  | half-life [2]: 11 h; LD50 [3]: greater than 3 grams/kg
auristatin | 4.6 ± 4.3 |  | IC50 [4]: 3.2 ± 0.51 nM
DHFR^2-13: two wild-type E. coli DHFR modules separated by a 13 (GLG5LVPRGT) amino acid linker (protein, left off: small tags and cut ends) MISLIAALAVDRVIGMENAMPWNLPADLAWFKRNTLNKPVIMGRHTWESIGRPLPGRKNIILSSQPGTDDRVTWVKSVDEAIAACGDVPEIMVIGGGRVYEQFLPKAQKLYLTHIDAEVEGDTHFPDYEPDDWESVFSEFHDADAQNSHSYCFEILERRGLGGGGGLVPRGTMISLIAALAVDRVIGMENAMPWNLPADLAWFKRNTLNKPVIMGRHTWESIGRPLPGRKNIILSSQPGTDDRVTWVKSVDEAIAACGDVPEIMVIGGGRVYEQFLPKAQKLYLTHIDAEVEGDTHFPDYEPDDWESVFSEFHDADAQNSHSYCFEILERR |  | no change in the oligomer composition | 
DHFR^2-3: E. coli DHFR-DHFR fusion protein with 3 amino acid linker (GGT) (protein, left off: small tags and cut ends) MISLIAALAVDRVIGMENAMPWNLPADLAWFKRNTLNKPVIMGRHTWESIGRPLPGRKNIILSSQPGTDDRVTWVKSVDEAIAACGDVPEIMVIGGGRVYEQFLPKAQKLYLTHIDAEVEGDTHFPDYEPDDWESVFSEFHDADAQNSHSYCFEILERRGGTMISLIAALAVDRVIGMENAMPWNLPADLAWFKRNTLNKPVIMGRHTWESIGRPLPGRKNIILSSQPGTDDRVTWVKSVDEAIAACGDVPEIMVIGGGRVYEQFLPKAQKLYLTHIDAEVEGDTHFPDYEPDDWESVFSEFHDADAQNSHSYCFEILERR |  | no change in the oligomer composition | 
DHFR^2-1G: E. coli DHFR-DHFR fusion protein with 1 (G) amino acid linker (protein, left off: small tags and cut ends, E. coli DHFR-DHFR fusion protein with 1 (G) amino acid linker) MISLIAALAVDRVIGMENAMPWNLPADLAWFKRNTLNKPVIMGRHTWESIGRPLPGRKNIILSSQPGTDDRVTWVKSVDEAIAACGDVPEIMVIGGGRVYEQFLPKAQKLYLTHIDAEVEGDTHFPDYEPDDWESVFSEFHDADAQNSHSYCFEILERRGMISLIAALAVDRVIGMENAMPWNLPADLAWFKRNTLNKPVIMGRHTWESIGRPLPGRKNIILSSQPGTDDRVTWVKSVDEAIAACGDVPEIMVIGGGRVYEQFLPKAQKLYLTHIDAEVEGDTHFPDYEPDDWESVFSEFHDADAQNSHSYCFEILERR |  | no change in the oligomer composition | 
